# Columns and labels:
# Format in all cases: cell-based
# [1] = system: HT29 cells; assay: Western blot protein expression; conditions: HT29, IC50, 72 h
# Description: (§1) Protein extraction was then performed on ice. Media were collected in Eppendorf tubes, and centrifuged at 500× g for 5 min at 4 °C. Meanwhile, 200 µL of lysis RIPA buffer, made up of 150 mM NaCl, 50 mM Tris-HCl, pH 8.0, 0.1% Triton X-100, 0.5% sodium deoxycholate, 0.1% SDS and 1 mM sodium orthovanadate, was added to each well, the cells were scrapped into the buffer, and added to the media-derived pellets. The tubes were placed on the shaker for 10 min at 4 °C. Then, cell extracts were centrifuged at 12,000× g for 15 min at 4 °C, and the supernatants (containing the proteins) were collected. The Bio-Rad-DC protein assay (Bio-Rad, Hercules, CA, USA) was used to assess protein content. Laemmli protein sample buffer (4×) with β-mercaptoethanol (9%) was used to prepare a final protein concentration of 20 µg. The samples were then heated at 100 °C for 5 min. A final volume of 30 µL of each sample was added per well and subjected to SDS-PAGE using Bolt 4–12% Bis-Tris gel (Thermo Fisher, Eugene, OR, USA) at 80 V for 30 min and then 120 V for 60 min with PageRuler™ Prestained Protein or SeeBlue Prestained Protein Ladder (Thermo Fisher, Eugene, OR, USA). Proteins were subsequently transferred to a 0.2 µm PVDF membrane (Amersham, Cytiya) using a semi-dry blot transfer. The membrane was then blocked in 5% BSA in TBST, for 1 h and probed overnight at 4 °C with primary antibodies against several cell proliferation, apoptotic, anti-apoptotic, microtubule and autophagic protein markers listed in Table S7 as per the manufacturer’s protocol. The primary antibody was then removed, washed three times for 10 min with TBST and then membranes were treated with either mouse or rabbit HRP-coupled secondary antibodies (1/3000) for 1 h and 30 min. Protein band detection was then performed using the chemiluminescence ECL kit (Thermo Fisher, Eugene, OR, USA). Blot images were obtained using the Odyssey® FC imaging system (LI-COR Biosciences, Lincoln, NE, USA) and band intensities were quantified relatively to glyceraldehyde-3-phosphate dehydrogenase (GAPDH) and then normalised each replicate gel to its corresponding no treatment control using the ImageJ v1.53t software (National Institutes of Health, Bethesda, MD, USA). Each marker results from the same experiment or parallel experiment where the gels were processed in parallel. Three independent experiments per marker were conducted.
# [2] = system: MDA−MB−231 cells; assay: Western blot protein expression; conditions: MDA−MB−231, IC50, 72 h
# Description: as §1
# [3] = system: MCF10A; assay: WST-1 cytotoxicity, 72 h; conditions: mean ± SEM
# Description: (§2) Cells were seeded in 96-well flat-bottom culture plates at a concentration of 1000 cells per well. […] After 72 h, the medium was removed and replaced with new medium. The cell viability reagent WST-1 (10 µL, Roche Diagnostics, Indianapolis, IN, USA) was added to each well. After an hour, the absorbance was measured at 450 nm using a versatile microplate reader (Bio-strategy, Campbellfield, VIC, Australia). Three separate experiments were performed, each with n = 3 replicates. GraphPad prism 10 was used to calculate apparent IC50 values using the nonlinear regression model Y = Bottom + (Top-Bottom)/(1 + 10^(X-LogIC50)) where Top and bottom are plateaus in the y-axis (% survival). The R^2 value of the curve fits ranged from 0.8972 to 0.9794.
# [4] = system: A2780; assay: WST-1 cytotoxicity, 72 h
# Description: as §2, with “survival).” for “survival). The R^2 value of the curve fits ranged from 0.8972 to 0.9794.”
# [5] = system: HT29; assay: WST-1 cytotoxicity, 72 h
# Description: as §2, with “survival).” for “survival). The R^2 value of the curve fits ranged from 0.8972 to 0.9794.”
# [6] = system: MCF−7; assay: WST-1 cytotoxicity, 72 h
# Description: as §2, with “survival).” for “survival). The R^2 value of the curve fits ranged from 0.8972 to 0.9794.”
# [7] = system: MDA−MB−231; assay: WST-1 cytotoxicity, 72 h
# Description: as §2, with “survival).” for “survival). The R^2 value of the curve fits ranged from 0.8972 to 0.9794.”
# [8] = system: ADDP; assay: WST-1 cytotoxicity, 72 h
# Description: as §2, with “survival).” for “survival). The R^2 value of the curve fits ranged from 0.8972 to 0.9794.”
# [9] = representative blot Figure S30G
# [10] = representative blot Figure S30H
structure (smiles),measurement,setting,value
"Cc1c(C)c2cccnc2c2ncccc12.N[C@H]1CCCC[C@@H]1N.O=[N+]([O-])[O-].O=[N+]([O-])[O-].[Pt+2] [Pt^II56MESS, [Pt(5,6-dimethyl-1,10-phenanthroline)(1S,2S-diaminocyclohexane)](NO3)2]",β-actin/GAPDH normalized to control (1),[1]; representative blot Figure S28A,0.4943
same,β-tubulin/GAPDH normalized to control (1),[1]; representative blot Figure S28B,0.2182
same,α-tubulin/GAPDH normalized to control (1),[1]; representative blot Figure S28C,0.04906
same,p-AKT/AKT/GAPDH normalized to control (1),[1]; representative blot Figure S29A,0.5359
same,p-ERK/ERK/GAPDH normalized to control (1),[1]; representative blot Figure S29B,0.8325
same,p53/GAPDH normalized to control (1),[1]; representative blot Figure S29C,1.014
same,p21/GAPDH normalized to control (1),[1]; representative blot Figure S29D,1.281
same,Bax/GAPDH normalized to control (1),[1]; representative blot Figure S30A,2.693
same,Bcl2/GAPDH normalized to control (1),[1]; representative blot Figure S30B,0.04576
same,Cyt C/GAPDH normalized to control (1),[1]; representative blot Figure S30C,6.706
same,Procaspase 8/GAPDH normalized to control (1),[1]; representative blot Figure S30D,0.2505
same,Cleaved BID/GAPDH normalized to control (1),[1]; representative blot Figure S30E,2.821
same,Procaspase 9/GAPDH normalized to control (1),[1]; representative blot Figure S30F,0.2717
same,Cleaved caspase 3/GAPDH normalized to control (1),[1]; [9],5.099
same,Procaspase 3/GAPDH normalized to control (1),[1]; [9],0.8936
same,Cleaved PARP-1/GAPDH normalized to control (1),[1]; [10],7.064
same,PARP-1/GAPDH normalized to control (1),[1]; [10],0.317
same,Beclin1/GAPDH normalized to control (1),[1]; representative blot Figure S31A,5.632
same,ATG5/GAPDH normalized to control (1),[1]; representative blot Figure S31B,0.6185
same,ATG16L1/GAPDH normalized to control (1),[1]; representative blot Figure S31C,1.309
same,ATG9A/GAPDH normalized to control (1),[1]; representative blot Figure S31D,1.516
same,ATG4B/GAPDH normalized to control (1),[1]; representative blot Figure S31E,0.7106
same,LC3B/GAPDH normalized to control (1),[1]; representative blot Figure S31F,1.044
same,β-actin/GAPDH normalized to control (1),[2]; representative blot Figure S24A,0.5956
same,β-tubulin/GAPDH normalized to control (1),[2]; representative blot Figure S24B,0.5978
same,α-tubulin/GAPDH normalized to control (1),[2]; representative blot Figure S24C,0.7887
same,p-AKT/AKT/GAPDH normalized to control (1),[2]; representative blot Figure S25A,0.5229
same,p-ERK/ERK/GAPDH normalized to control (1),[2]; representative blot Figure S25B,0.06081
same,p53/GAPDH normalized to control (1),[2]; representative blot Figure S25C,0.6187
same,p21/GAPDH normalized to control (1),[2]; representative blot Figure S25D,2.6
same,Bax/GAPDH normalized to control (1),[2]; representative blot Figure S26A,1.276
same,Bcl2/GAPDH normalized to control (1),[2]; representative blot Figure S26B,0.6846
same,Cytochrome C/GAPDH normalized to control (1),[2]; representative blot Figure S26C,3.109
same,Procaspase 8/GAPDH normalized to control (1),[2]; representative blot Figure S26D,0.3584
same,Cleaved BID/GAPDH normalized to control (1),[2]; representative blot Figure S26E,14.74
same,Procaspase 9/GAPDH normalized to control (1),[2]; representative blot Figure S26F,0.4755
same,Procaspase 3/GAPDH normalized to control (1),[2]; representative blot Figure S26G,0.4243
same,PARP-1/GAPDH normalized to control (1),[2]; representative blot Figure S26H,0.634
same,Beclin1/GAPDH normalized to control (1),[2]; representative blot Figure S27A,3.15
same,ATG5/GAPDH normalized to control (1),[2]; representative blot Figure S27B,0.4012
same,ATG16L1/GAPDH normalized to control (1),[2]; representative blot Figure S27C,0.5726
same,ATG9A/GAPDH normalized to control (1),[2]; representative blot Figure S27D,0.2848
same,ATG4B/GAPDH normalized to control (1),[2]; representative blot Figure S27E,2.107
same,LC3B/GAPDH normalized to control (1),[2]; representative blot Figure S27F,0.8478
same,IC50,[3],410 nM
same,potency relative to cisplatin,"[4]; A2780, 72 h",113 fold
same,IC50,"[4]; A2780, 72 h, mean ± SEM",190 nM
same,Selective cytotoxicity index (SCI),[4]; IC50 MCF10A/IC50 A2780,2.16
same,potency relative to cisplatin,"[5]; HT29, 72 h",432 fold
same,IC50,"[5]; HT29, 72 h, mean ± SEM",180 nM
same,Selective cytotoxicity index (SCI),[5]; IC50 MCF10A/IC50 HT29,2.28
same,Selective cytotoxicity index (SCI),[6]; IC50 MCF10A/IC50 MCF−7,0.73
same,potency relative to cisplatin,"[6]; MCF−7, 72 h",59 fold
same,IC50,"[6]; MCF−7, 72 h, mean ± SEM",560 nM
same,Selective cytotoxicity index (SCI),[7]; IC50 MCF10A/IC50 MDA−MB−231,2.93
same,potency relative to cisplatin,"[7]; MDA−MB−231, 72 h",93 fold
same,IC50,"[7]; MDA−MB−231, 72 h, mean ± SEM",140 nM
same,potency relative to cisplatin,"[8]; ADDP, 72 h",147 fold
same,IC50,"[8]; ADDP, 72 h, mean ± SEM",760 ± 1270 nM
same,Selective cytotoxicity index (SCI),[8]; IC50 MCF10A/IC50 ADDP,0.54

# From publication PMC11274883, “Anticancer Effect of Pt^[sequence], Pt^II5MESS, Pt^II56MESS and Their Platinum(IV)-Dihydroxy Derivatives against Triple-Negative Breast Cancer and Cisplatin-Resistant Colorectal Cancer” (Cancers, 2024)
